Where two headings read alike, the source gives them in different places.
Key:
Assay in all cases: Glasshouse assay for herbicidal activity (pre- and post-emergence), percentage phytotoxicity
Format in all cases: in vivo
[1] = test system: Alopecurus myosuroides (ALOMY); conditions: Alopecurus myosuroides, Rate 250 g/ha, 100%=total damage, 0%=no damage
Summary of the method: (§1)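 Damage was rated visually as percent phytotoxicity, 100% meaning total kill, 20 days after pre-emergence application (made one day post-sowing) or 15 days after post-emergence application (made about 12 days post-sowing). Plants were grown under 16 h light, 65% humidity, warm species 24/18° C, cool 20/16° C.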

Lolium perenne (LOLPE) = conditions: Lolium perenne, Rate 250 g/ha, 100%=total damage, 0%=no damage
Summary of the method: as §1

[2] = test system: Echinochloa crus-galli (ECHCG); conditions: Echinochloa crus-galli, Rate 250 g/ha, 100%=total damage, 0%=no damage
Summary of the method: as §1

Avena fatua (AVEFA) = conditions: Avena fatua, Rate 250 g/ha, 100%=total damage, 0%=no damage
Summary of the method: as §1

[3] = post-emergence, 360 h, post-emergence, visual assessment 15 DAA, read-out: Post-emergence herbicidal activity (percentage phytotoxicity) ALOMY POST
[4] = pre-emergence, 480 h, pre-emergence, visual assessment 20 DAA, read-out: Pre-emergence herbicidal activity (percentage phytotoxicity) ALOMY PRE
[5] = post-emergence, 360 h, post-emergence, visual assessment 15 DAA, read-out: Post-emergence herbicidal activity (percentage phytotoxicity) LOLPE POST
[6] = pre-emergence, 480 h, pre-emergence, visual assessment 20 DAA, read-out: Pre-emergence herbicidal activity (percentage phytotoxicity) LOLPE PRE
[7] = post-emergence, 360 h, post-emergence, visual assessment 15 DAA, read-out: Post-emergence herbicidal activity (percentage phytotoxicity) ECHCG POST
[8] = pre-emergence, 480 h, pre-emergence, visual assessment 20 DAA, read-out: Pre-emergence herbicidal activity (percentage phytotoxicity) ECHCG PRE
[9] = post-emergence, 360 h, post-emergence, visual assessment 15 DAA, read-out: Post-emergence herbicidal activity (percentage phytotoxicity) AVEFA POST
[10] = pre-emergence, 480 h, pre-emergence, visual assessment 20 DAA, read-out: Pre-emergence herbicidal activity (percentage phytotoxicity) AVEFA PRE

Compound: CCN(C)C(=O)CC1CC(=O)C(c2c(C)cc(-c3ccc(F)cn3)cc2C)C1=O (stereo not shown) [Compound B392]
- pest or weed control at 250 g/ha [1, 3]: 90%
- pest or weed control at 250 g/ha [1, 4]: 100%
- pest or weed control at 250 g/ha (Lolium perenne (LOLPE); [5]): 90%
- pest or weed control at 250 g/ha (Lolium perenne (LOLPE); [6]): 100%
- pest or weed control at 250 g/ha [2, 7]: 100%
- pest or weed control at 250 g/ha [2, 8]: 100%
- pest or weed control at 250 g/ha (Avena fatua (AVEFA); [9]): 100%
- pest or weed control at 250 g/ha (Avena fatua (AVEFA); [10]): 100%

Compound: Cc1cc(-c2ccc(F)cn2)cc(C)c1C1C(=O)CC(CC(=O)N(C)C(C)(C)C)C1=O (stereo not shown) [Compound B393]
- pest or weed control at 250 g/ha [1, 3]: 90%
- pest or weed control at 250 g/ha [1, 4]: 100%
- pest or weed control at 250 g/ha (Lolium perenne (LOLPE); [5]): 90%
- pest or weed control at 250 g/ha (Lolium perenne (LOLPE); [6]): 100%
- pest or weed control at 250 g/ha [2, 7]: 100%
- pest or weed control at 250 g/ha [2, 8]: 100%
- pest or weed control at 250 g/ha (Avena fatua (AVEFA); [9]): 100%
- pest or weed control at 250 g/ha (Avena fatua (AVEFA); [10]): 90%

Compound: C#CCN(C)C(=O)CC1CC(=O)C(c2c(C)cc(-c3ccc(F)cn3)cc2C)C1=O (stereo not shown) [Compound B394]
- pest or weed control at 250 g/ha [1, 3]: 100%
- pest or weed control at 250 g/ha [1, 4]: 100%
- pest or weed control at 250 g/ha (Lolium perenne (LOLPE); [5]): 90%
- pest or weed control at 250 g/ha (Lolium perenne (LOLPE); [6]): 100%
- pest or weed control at 250 g/ha [2, 7]: 100%
- pest or weed control at 250 g/ha [2, 8]: 100%
- pest or weed control at 250 g/ha (Avena fatua (AVEFA); [9]): 100%
- pest or weed control at 250 g/ha (Avena fatua (AVEFA); [10]): 100%

Compound: C=CCNC(=O)CC1CC(=O)C(c2c(C)cc(-c3ccc(F)cn3)cc2C)C1=O (stereo not shown) [Compound B395]
- pest or weed control at 250 g/ha [1, 3]: 100%
- pest or weed control at 250 g/ha [1, 4]: 100%
- pest or weed control at 250 g/ha (Lolium perenne (LOLPE); [5]): 90%
- pest or weed control at 250 g/ha (Lolium perenne (LOLPE); [6]): 100%
- pest or weed control at 250 g/ha [2, 7]: 100%
- pest or weed control at 250 g/ha [2, 8]: 100%
- pest or weed control at 250 g/ha (Avena fatua (AVEFA); [9]): 100%
- pest or weed control at 250 g/ha (Avena fatua (AVEFA); [10]): 100%

Compound: Cc1cc(-c2ccc(F)cn2)cc(C)c1C1C(=O)CC(CC(=O)N(C)C(C)C)C1=O (stereo not shown) [Compound B396]
- pest or weed control at 250 g/ha [1, 3]: 90%
- pest or weed control at 250 g/ha [1, 4]: 100%
- pest or weed control at 250 g/ha (Lolium perenne (LOLPE); [5]): 90%
- pest or weed control at 250 g/ha (Lolium perenne (LOLPE); [6]): 100%
- pest or weed control at 250 g/ha [2, 7]: 100%
- pest or weed control at 250 g/ha [2, 8]: 100%
- pest or weed control at 250 g/ha (Avena fatua (AVEFA); [9]): 100%
- pest or weed control at 250 g/ha (Avena fatua (AVEFA); [10]): 100%

Compound: Cc1cc(-c2ccc(F)cn2)cc(C)c1C1C(=O)CC(CC(=O)NCc2cccs2)C1=O (stereo not shown) [Compound B397]
- pest or weed control at 250 g/ha [1, 3]: 90%
- pest or weed control at 250 g/ha [1, 4]: 70%
- pest or weed control at 250 g/ha (Lolium perenne (LOLPE); [5]): 90%
- pest or weed control at 250 g/ha (Lolium perenne (LOLPE); [6]): 70%
- pest or weed control at 250 g/ha [2, 7]: 100%
- pest or weed control at 250 g/ha [2, 8]: 100%
- pest or weed control at 250 g/ha (Avena fatua (AVEFA); [9]): 90%
- pest or weed control at 250 g/ha (Avena fatua (AVEFA); [10]): 80%

Compound: Cc1ccc(CNC(=O)CC2CC(=O)C(c3c(C)cc(-c4ccc(F)cn4)cc3C)C2=O)cc1 (stereo not shown) [Compound B398]
- pest or weed control at 250 g/ha [1, 3]: 80%
- pest or weed control at 250 g/ha [1, 4]: 50%
- pest or weed control at 250 g/ha (Lolium perenne (LOLPE); [5]): 90%
- pest or weed control at 250 g/ha (Lolium perenne (LOLPE); [6]): 70%
- pest or weed control at 250 g/ha [2, 7]: 100%
- pest or weed control at 250 g/ha [2, 8]: 70%
- pest or weed control at 250 g/ha (Avena fatua (AVEFA); [9]): 80%
- pest or weed control at 250 g/ha (Avena fatua (AVEFA); [10]): 40%

Compound: Cc1cc(-c2ccc(F)cn2)cc(C)c1C1C(=O)CC(CC(=O)NC/C=C/Cl)C1=O (stereo not shown) [Compound B400]
- pest or weed control at 250 g/ha [1, 3]: 100%
- pest or weed control at 250 g/ha [1, 4]: 100%
- pest or weed control at 250 g/ha (Lolium perenne (LOLPE); [5]): 90%
- pest or weed control at 250 g/ha (Lolium perenne (LOLPE); [6]): 100%
- pest or weed control at 250 g/ha [2, 7]: 100%
- pest or weed control at 250 g/ha [2, 8]: 100%
- pest or weed control at 250 g/ha (Avena fatua (AVEFA); [9]): 100%
- pest or weed control at 250 g/ha (Avena fatua (AVEFA); [10]): 100%

Compound: Cc1cc(-c2ccc(F)cn2)cc(C)c1C1C(=O)CC(CC(=O)NCc2cccc(Cl)c2)C1=O (stereo not shown) [Compound B401]
- pest or weed control at 250 g/ha [1, 3]: 90%
- pest or weed control at 250 g/ha [1, 4]: 80%
- pest or weed control at 250 g/ha (Lolium perenne (LOLPE); [5]): 90%
- pest or weed control at 250 g/ha (Lolium perenne (LOLPE); [6]): 90%
- pest or weed control at 250 g/ha [2, 7]: 100%
- pest or weed control at 250 g/ha [2, 8]: 80%
- pest or weed control at 250 g/ha (Avena fatua (AVEFA); [9]): 100%
- pest or weed control at 250 g/ha (Avena fatua (AVEFA); [10]): 70%

Compound: Cc1cc(-c2ncc(F)cc2F)cc(C)c1C1C(=O)CC(CC(=O)NOCc2ccccc2)C1=O (stereo not shown) [Compound B402]
- pest or weed control at 250 g/ha [1, 3]: 90%
- pest or weed control at 250 g/ha [1, 4]: 60%
- pest or weed control at 250 g/ha (Lolium perenne (LOLPE); [5]): 90%
- pest or weed control at 250 g/ha (Lolium perenne (LOLPE); [6]): 80%
- pest or weed control at 250 g/ha [2, 7]: 100%
- pest or weed control at 250 g/ha [2, 8]: 80%
- pest or weed control at 250 g/ha (Avena fatua (AVEFA); [9]): 100%
- pest or weed control at 250 g/ha (Avena fatua (AVEFA); [10]): 70%

Compound: Cc1cc(-c2ncc(F)cc2F)cc(C)c1C1C(=O)CC(CC(=O)NO)C1=O (stereo not shown) [Compound B403]
- pest or weed control at 250 g/ha [1, 3]: 90%
- pest or weed control at 250 g/ha [1, 4]: 60%
- pest or weed control at 250 g/ha (Lolium perenne (LOLPE); [5]): 80%
- pest or weed control at 250 g/ha (Lolium perenne (LOLPE); [6]): 20%
- pest or weed control at 250 g/ha [2, 7]: 100%
- pest or weed control at 250 g/ha [2, 8]: 0%
- pest or weed control at 250 g/ha (Avena fatua (AVEFA); [9]): 100%
- pest or weed control at 250 g/ha (Avena fatua (AVEFA); [10]): 50%

— patent US10206394B2, “Herbicidal compounds” (Syngenta Participations AG, priority 2014, dated 2019)
